Results as given in DBAASP.
Values after ≈ are worked out from the molar mass of the structure shown.

What was measured:
Assay in all cases: ≥ marks a high value that may be exact or a test limit, other limits are often not marked, values filed in µg/mL are converted to µM
Staphylococcus aureus = test system: Staphylococcus aureus
Escherichia coli = test system: Escherichia coli
[1] = test system: Escherichia coli ATCC 25922
[2] = test system: Staphylococcus aureus ATCC 29213
[3] = test system: Staphylococcus aureus ATCC 25923
[4] = test system: Pseudomonas aeruginosa ATCC 27853
[5] = test system: Klebsiella pneumoniae ATCC 700603
[6] = test system: Enterococcus faecalis ATCC 29212

CC[C@H](C)[C@H](N)C(=O)NCC(=O)N[C@@H](CCCCN)C(=O)N[C@@H](CC(C)C)C(=O)N[C@H](C(=O)N[C@@H](CCCCN)C(=O)N[C@@H](Cc1c[nH]c2ccccc12)C(=O)N[C@H](C(=O)N[C@H](C(=O)N[C@@H](CCCCN)C(=O)N[C@H](C(=O)N[C@H](C(=O)N[C@@H](CC(N)=O)C(=O)N[C@@H](CCCCN)C(=O)N[C@@H](Cc1ccccc1)C(=O)N[C@H](C(=O)N[C@@H](CCCCN)C(=O)N[C@@H](CCCCN)C(=O)O)[C@@H](C)O)C(C)C)[C@@H](C)O)[C@@H](C)CC)[C@@H](C)CC)C(C)C [IGKLVKWIIKTVNKFTKK]
MIC (Staphylococcus aureus): 3.7 µM (≈ 7.94 µg/mL) | MIC (Escherichia coli): 2.1 µM (≈ 4.5 µg/mL)

CC[C@H](C)[C@H](NC(=O)[C@H](CCCCN)NC(=O)[C@H](CC(C)C)NC(=O)[C@H](C)NC(=O)[C@H](CCCCN)NC(=O)CNC(=O)[C@H](CC(C)C)NC(=O)[C@H](CC(C)C)NC(=O)[C@H](CO)NC(=O)CNC(=O)[C@H](Cc1ccccc1)NC(=O)CN)C(=O)NCC(=O)N[C@H](C(=O)N[C@@H](CC(N)=O)C(=O)N[C@@H](CC(C)C)C(=O)N[C@@H](CC(C)C)C(N)=O)[C@@H](C)O [GFGSLLGKALKIGTNLL]
MIC (Staphylococcus aureus): 6 µM (≈ 10.2 µg/mL) | MIC (Escherichia coli): 25 µM (≈ 42.5 µg/mL)

CC[C@H](C)[C@H](NC(=O)[C@H](CCCN=C(N)N)NC(=O)[C@H](CCC(N)=O)NC(=O)[C@@H](NC(=O)[C@@H](NC(=O)[C@H](CCCN=C(N)N)NC(=O)[C@H](CCCCN)NC(=O)[C@@H](N)Cc1ccccc1)[C@@H](C)CC)C(C)C)C(=O)N[C@@H](CCCCN)C(=O)N[C@@H](CC(=O)O)C(=O)NCC(=O)N[C@@H](CC(C)C)C(=O)N[C@@H](CCCN=C(N)N)C(=O)O [FKRIVQRIKDGLR]
MIC [1]: 20 µM (≈ 32.6 µg/mL) | MIC [2]: > 40 µM

CC(C)C[C@H](NC(=O)[C@H](CCCCN)NC(=O)[C@H](CC(C)C)NC(=O)[C@H](CC(C)C)NC(=O)[C@H](CCCCN)NC(=O)[C@H](CCCCN)NC(=O)[C@@H]1CCCN1C(=O)[C@H](CC(C)C)NC(=O)[C@H](CCCCN)NC(=O)[C@H](CC(C)C)NC(=O)[C@H](CC(C)C)NC(=O)[C@H](CCCCN)NC(=O)[C@H](CCCCN)NC(=O)[C@@H](N)CC(C)C)C(=O)N[C@@H](C)C(=O)NCC(=O)O [LKKLLKLPKKLLKLAG]
MIC [1]: 5 µM (≈ 9.02 µg/mL) | MIC [2]: > 40 µM

C[C@H](NC(=O)[C@H](Cc1c[nH]c2ccccc12)NC(=O)[C@H](CCCN=C(N)N)NC(=O)[C@H](Cc1c[nH]c2ccccc12)NC(=O)[C@H](C)NC(=O)[C@H](CCCCN)NC(=O)[C@@H](N)Cc1ccc(O)cc1)C(=O)N[C@@H](Cc1c[nH]c2ccccc12)C(=O)N[C@@H](CCCN=C(N)N)C(=O)N[C@@H](Cc1c[nH]c2ccccc12)C(=O)N[C@@H](CCCCN)C(N)=O [YKAWRWAWRWK]
MIC [3]: 3.05 µM (≈ 5 µg/mL) | MIC [4]: 12.2 µM (≈ 20 µg/mL) | MIC [1]: 4.58 µM (≈ 7.5 µg/mL)

CSCC[C@H](NC(=O)[C@H](CCCN=C(N)N)NC(=O)[C@H](Cc1c[nH]c2ccccc12)NC(=O)[C@H](C)NC(=O)[C@H](Cc1c[nH]c2ccccc12)NC(=O)[C@H](CCCN=C(N)N)NC(=O)[C@H](Cc1ccc(O)cc1)NC(=O)[C@H](Cc1c[nH]c2ccccc12)NC(=O)[C@H](CCCN=C(N)N)NC(=O)[C@@H](N)CCCN=C(N)N)C(=O)N[C@@H](CCCN=C(N)N)C(N)=O [RRWYRWAWRMR]
MIC [3]: 2.9 µM (≈ 5 µg/mL) | MIC [4]: 4.35 µM (≈ 7.5 µg/mL) | MIC [1]: 5.8 µM (≈ 9.99 µg/mL)

C[C@H](NC(=O)[C@H](Cc1ccccc1)NC(=O)[C@H](CCCCN)NC(=O)[C@H](CCCCN)NC(=O)[C@H](C)NC(=O)[C@@H](N)Cc1ccccc1)C(=O)N[C@@H](CCCCN)C(=O)N[C@@H](CCCCN)C(=O)N[C@@H](Cc1ccccc1)C(=O)N[C@@H](CCCCN)C(N)=O [FAKKFAKKFK]
MIC [3]: 193 µM (≈ 240 µg/mL) | MIC [4]: 193 µM (≈ 240 µg/mL) | MIC [1]: 193 µM (≈ 240 µg/mL)

CC[C@H](C)[C@H](NC(=O)CN)C(=O)NCC(=O)N[C@@H](CO)C(=O)N[C@@H](CC(C)C)C(=O)N[C@@H](CC(C)C)C(=O)N[C@@H](C)C(=O)N[C@@H](CCCCN)C(=O)N[C@@H](C)C(=O)N[C@@H](C)C(=O)N[C@@H](CCCCN)C(=O)N[C@@H](CC(C)C)C(=O)NCC(=O)N[C@@H](C)C(=O)N[C@@H](CC(N)=O)C(=O)N[C@@H](CC(C)C)C(=O)N[C@@H](CC(C)C)C(N)=O [GIGSLLAKAAKLGANLL]
MIC (Staphylococcus aureus): 12.5 µM (≈ 20.1 µg/mL) | MIC (Escherichia coli): 25 µM (≈ 40.2 µg/mL)

NCC(=O)N[C@@H](CCCN=C(N)N)C(=O)N[C@@H](CCCN=C(N)N)C(=O)N1CCC[C@H]1C(=O)N[C@@H](CCCN=C(N)N)C(=O)N1CCC[C@H]1C(=O)N[C@@H](CCCN=C(N)N)C(=O)N1CCC[C@H]1C(=O)N[C@@H](CCCN=C(N)N)C(=O)N1CCC[C@H]1C(=O)N[C@@H](Cc1c[nH]c2ccccc12)C(=O)N[C@@H](Cc1c[nH]c2ccccc12)C(=O)N[C@@H](Cc1c[nH]c2ccccc12)C(=O)N[C@@H](Cc1c[nH]c2ccccc12)C(N)=O [GRRPRPRPRPWWWW]
MIC [4]: 20 µM (≈ 39.8 µg/mL) | MIC [1]: 20 µM (≈ 39.8 µg/mL) | MIC [2]: 40 µM (≈ 79.5 µg/mL)

CC[C@H](C)[C@H](NC(=O)[C@@H](NC(=O)[C@@H]1CCCN1C(=O)[C@@H](NC(=O)[C@@H]1CCCN1C(=O)[C@H](CCCCN)NC(=O)[C@H](CCCCN)NC(=O)[C@H](CO)NC(=O)CN)C(C)C)[C@@H](C)CC)C(=O)N[C@@H](Cc1ccc(O)cc1)C(=O)N[C@H]1CSSC[C@@H](C(=O)N[C@@H](CCC(N)=O)C(=O)N[C@@H](CCCN=C(N)N)C(=O)N[C@@H](CCSC)C(=O)O)NC(=O)[C@H](CCCCN)NC(=O)[C@H](C)NC(=O)[C@H](CO)NC(=O)[C@H](CCCN=C(N)N)NC(=O)[C@H](CCCN=C(N)N)NC(=O)[C@H](CC(N)=O)NC1=O [GSKKPVPIIYCNRRSAKCQRM]
MIC [5]: 26.3 µM (≈ 63.9 µg/mL) | MIC [1]: 26.3 µM (≈ 63.9 µg/mL)

CC[C@H](C)[C@H](NC(=O)CN)C(=O)NCC(=O)N[C@@H](CCCCN)C(=O)N[C@@H](CC(C)C)C(=O)N[C@@H](Cc1ccccc1)C(=O)N[C@@H](CC(C)C)C(=O)N[C@@H](Cc1cnc[nH]1)C(=O)N[C@@H](C)C(=O)N[C@@H](C)C(=O)N[C@@H](CCCCN)C(=O)N[C@@H](CCCCN)C(=O)N[C@@H](Cc1ccccc1)C(=O)N[C@@H](C)C(=O)N[C@@H](CCCCN)C(=O)N[C@@H](C)C(=O)N[C@@H](Cc1ccccc1)C(=O)N[C@H](C(=O)N[C@@H](C)C(=O)N[C@@H](CCC(=O)O)C(=O)N[C@@H](CCCCN)C(=O)N[C@@H](CCSC)C(=O)N[C@@H](CC(N)=O)C(=O)N[C@@H](CO)C(=O)O)C(C)C [GIGKLFLHAAKKFAKAFVAEKMNS]
MIC [2]: 38.4 µM (≈ 100 µg/mL)

CC(C)C[C@H](NC(=O)[C@H](CCCCN)NC(=O)[C@H](CC(C)C)NC(=O)[C@H](CC(C)C)NC(=O)[C@H](CCCCN)NC(=O)[C@H](CCCCN)NC(=O)[C@@H]1CSSC[C@H](N)C(=O)N[C@@H](CCCCN)C(=O)N[C@@H](CCCCN)C(=O)N[C@@H](CC(C)C)C(=O)N[C@@H](CC(C)C)C(=O)N[C@@H](CCCCN)C(=O)N[C@@H](CC(C)C)C(=O)N1)C(=O)N[C@@H](C)C(=O)NCC(=O)O [CKKLLKLCKKLLKLAG]
MIC (Escherichia coli): 40 µM (≈ 71.9 µg/mL) | MIC [1]: 10 µM (≈ 18 µg/mL) | MIC [2]: > 40 µM

CC[C@H](C)[C@H](NC(=O)[C@H](CCCCN)NC(=O)[C@H](CO)NC(=O)[C@H](Cc1c[nH]c2ccccc12)NC(=O)[C@H](CC(C)C)NC(=O)CN)C(=O)N[C@@H](CCCCN)C(=O)N[C@@H](CCC(=O)O)C(=O)N[C@@H](C)C(=O)N[C@@H](C)C(=O)N[C@@H](CCCCN)C(=O)N[C@H](C(=O)N[C@@H](C)C(=O)NCC(=O)N[C@@H](CC(C)C)C(=O)N[C@@H](CCSC)C(=O)N[C@@H](C)C(=O)N[C@@H](CCSC)C(=O)NCC(=O)N[C@@H](Cc1ccccc1)C(=O)N[C@H](C(=O)N[C@@H](CC(N)=O)C(=O)N[C@@H](CC(=O)O)C(=O)N[C@@H](CCSC)C(=O)N[C@H](C(=O)O)C(C)C)C(C)C)[C@@H](C)O [GLWSKIKEAAKTAGLMAMGFVNDMV]
MIC [3]: 22 µM (≈ 58.7 µg/mL) | MIC [6]: 11 µM (≈ 29.4 µg/mL) | MIC [4]: 22 µM (≈ 58.7 µg/mL) | MIC [1]: 5.6 µM (≈ 14.9 µg/mL)

CC[C@H](C)[C@H](NC(=O)[C@H](Cc1c[nH]c2ccccc12)NC(=O)[C@H](CCCCN)NC(=O)[C@@H](NC(=O)[C@H](CC(C)C)NC(=O)[C@H](CCCCN)NC(=O)CNC(=O)[C@@H](NC(=O)[C@@H](NC(=O)[C@@H](N)CO)[C@@H](C)O)[C@@H](C)CC)C(C)C)C(=O)N[C@H](C(=O)N[C@@H](CCCCN)C(=O)N[C@H](C(=O)N[C@H](C(=O)N[C@@H](CC(N)=O)C(=O)N[C@@H](CCCCN)C(=O)N[C@@H](Cc1ccccc1)C(=O)N[C@H](C(=O)N[C@@H](CCCCN)C(=O)N[C@@H](CCCCN)C(=O)O)[C@@H](C)O)C(C)C)[C@@H](C)O)[C@@H](C)CC [STIGKLVKWIIKTVNKFTKK]
MIC (Staphylococcus aureus): 4.8 µM (≈ 11.2 µg/mL) | MIC (Escherichia coli): 2.4 µM (≈ 5.6 µg/mL)

CC[C@H](C)[C@H](NC(=O)[C@H](CCCCN)NC(=O)[C@H](CCCCN)NC(=O)CNC(=O)[C@@H](NC(=O)CNC(=O)[C@H](Cc1ccccc1)NC(=O)[C@H](CC(N)=O)NC(=O)CNC(=O)[C@H](CO)NC(=O)[C@H](CC(C)C)NC(=O)[C@@H](NC(=O)[C@@H](N)CO)[C@@H](C)CC)C(C)C)C(=O)N[C@H](C(=O)N[C@H]1CSSC[C@@H](C(=O)O)NC(=O)[C@H](CC(C)C)NC(=O)CNC(=O)[C@H](CO)NC(=O)[C@H](CC(C)C)NC(=O)CNC1=O)C(C)C [SILSGNFGVGKKIVCGLSGLC]
MIC (Staphylococcus aureus): > 100 µM | MIC (Escherichia coli): 25 µM (≈ 51.3 µg/mL)

CC(C)C[C@H](NC(=O)[C@H](CCCCN)NC(=O)[C@H](CC(C)C)NC(=O)[C@H](CC(C)C)NC(=O)[C@H](CCCCN)NC(=O)[C@H](CCCCN)NC(=O)[C@H](CCC(N)=O)NC(=O)[C@H](CC(C)C)NC(=O)[C@H](CCCCN)NC(=O)[C@H](CC(C)C)NC(=O)[C@H](CC(C)C)NC(=O)[C@H](CCCCN)NC(=O)[C@H](CCCCN)NC(=O)[C@@H](N)CC(C)C)C(=O)N[C@@H](C)C(=O)NCC(=O)O [LKKLLKLQKKLLKLAG]
MIC [1]: 2.5 µM (≈ 4.59 µg/mL) | MIC [2]: > 40 µM
